Experimental data as given in the supplement of paper PMC11616607.

system: Ovsaho; test: drug sensitivity score (DSS) from 5-point dose-response viability curve (DSS (area-under-curve based score)); higher = more sensitive (stronger growth inhibition or killing); extreme values may be limits of the assay; conditions: exposure time: 72 h; concentration range: 5 concentrations over 10,000-fold range
Summary of the method: (§1)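 Viability of ovarian cancer and normal ovarian cell lines was read by CellTiter-Glo luminescence after 3 days at 37°C and 5% CO2 in 384-well plates holding 1,500 cells per well. Drugs had been dispensed in DMSO or water with an Echo 550 at five concentrations over a 10,000-fold range. Using Breeze software, a drug sensitivity score was assigned per cell line and drug, higher scores meaning more sensitive, and zero means no response.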

SMILES	drug sensitivity score
Cc1ccc(C(=O)Nc2ccc(CN3CCN(C)CC3)c(C(F)(F)F)c2)cc1C#Cc1cnc2cccnn12 [Ponatinib]	7.6
C=CC(=O)N1CCC(Oc2cc3c(Nc4ccc(Cl)c(Cl)c4F)ncnc3cc2OC)CC1 [Poziotinib]	4.5
CCCCc1nc2cc(/C=C/C(=O)NO)ccc2n1CCN(CC)CC [Pracinostat]	10.5
CC[C@H](C)C(=O)O[C@H]1C[C@H](O)C=C2C=C[C@H](C)[C@H](CC[C@@H](O)C[C@@H](O)CC(=O)O)[C@H]21 [Pravastatin]	0
C[C@]12C=CC(=O)C=C1CC[C@@H]1[C@@H]2[C@@H](O)C[C@@]2(C)[C@H]1CC[C@]2(O)C(=O)CO [Prednisolone]	0
COc1cccc(OCCCN)c1-c1cc(Nc2cnc(C#N)cn2)n[nH]1 [Prexasertib]	16.1
Cn1cc(CNCC2CCN(c3ncc(C(=O)NO)cn3)CC2)c2ccccc21 [Quisinostat]	9
CC(C)(C)c1cc(NC(=O)Nc2ccc(-c3cn4c(n3)sc3cc(OCCN5CCOCC5)ccc34)cc2)no1 [Quizartinib]	0.2
Nc1cc(F)ccc1NC(=O)/C=C/c1cnn(C/C=C/c2ccccc2)c1 [RGFP966]	0
COC(=O)c1ccc([C@H]2c3[nH]c4ccccc4c3C[C@H](C(=O)OC)N2C(=O)CCl)cc1 [RSL3]	0
Cc1cnc(NC(=O)Nc2cc(Br)c(C)cc2OC[C@@H]2CNCCO2)cn1 [Rabusertib]	0
Cc1cn(-c2cc(NC(=O)c3ccc(C)c(Nc4nccc(-c5cnccn5)n4)c3)cc(C(F)(F)F)c2)cn1 [Radotinib]	0
CC(C)(C)Cn1c(N)nc2ccc(-c3[nH]c(C(C)(C)C)nc3-c3ccc(F)cc3)nc21 [Ralimetinib]	1.8
O=C(c1ccc(OCCN2CCCCC2)cc1)c1c(-c2ccc(O)cc2)sc2cc(O)ccc12 [Raloxifene]	3.3
Cc1nc(=O)c2cc(CN(C)c3ccc(C(=O)N[C@@H](CCC(=O)O)C(=O)O)s3)ccc2[nH]1 [Raltitrexed]	5.7

system: COV318; test: as above; conditions: exposure time: 72 h; concentration range: 5 concentrations over 10,000-fold range
Summary of the method: as §1

SMILES	drug sensitivity score
Cc1ccc(C(=O)Nc2ccc(CN3CCN(C)CC3)c(C(F)(F)F)c2)cc1C#Cc1cnc2cccnn12 [Ponatinib]	5.7
C=CC(=O)N1CCC(Oc2cc3c(Nc4ccc(Cl)c(Cl)c4F)ncnc3cc2OC)CC1 [Poziotinib]	0
CCCCc1nc2cc(/C=C/C(=O)NO)ccc2n1CCN(CC)CC [Pracinostat]	10
CC[C@H](C)C(=O)O[C@H]1C[C@H](O)C=C2C=C[C@H](C)[C@H](CC[C@@H](O)C[C@@H](O)CC(=O)O)[C@H]21 [Pravastatin]	0
C[C@]12C=CC(=O)C=C1CC[C@@H]1[C@@H]2[C@@H](O)C[C@@]2(C)[C@H]1CC[C@]2(O)C(=O)CO [Prednisolone]	1.1
COc1cccc(OCCCN)c1-c1cc(Nc2cnc(C#N)cn2)n[nH]1 [Prexasertib]	22.9
Cn1cc(CNCC2CCN(c3ncc(C(=O)NO)cn3)CC2)c2ccccc21 [Quisinostat]	4.7
CC(C)(C)c1cc(NC(=O)Nc2ccc(-c3cn4c(n3)sc3cc(OCCN5CCOCC5)ccc34)cc2)no1 [Quizartinib]	0
Nc1cc(F)ccc1NC(=O)/C=C/c1cnn(C/C=C/c2ccccc2)c1 [RGFP966]	0.6
COC(=O)c1ccc([C@H]2c3[nH]c4ccccc4c3C[C@H](C(=O)OC)N2C(=O)CCl)cc1 [RSL3]	0
Cc1cnc(NC(=O)Nc2cc(Br)c(C)cc2OC[C@@H]2CNCCO2)cn1 [Rabusertib]	0.2
Cc1cn(-c2cc(NC(=O)c3ccc(C)c(Nc4nccc(-c5cnccn5)n4)c3)cc(C(F)(F)F)c2)cn1 [Radotinib]	0
CC(C)(C)Cn1c(N)nc2ccc(-c3[nH]c(C(C)(C)C)nc3-c3ccc(F)cc3)nc21 [Ralimetinib]	2.6
O=C(c1ccc(OCCN2CCCCC2)cc1)c1c(-c2ccc(O)cc2)sc2cc(O)ccc12 [Raloxifene]	1.8
Cc1nc(=O)c2cc(CN(C)c3ccc(C(=O)N[C@@H](CCC(=O)O)C(=O)O)s3)ccc2[nH]1 [Raltitrexed]	3

system: COV362; test: as above; conditions: exposure time: 72 h; concentration range: 5 concentrations over 10,000-fold range
Summary of the method: as §1

SMILES	drug sensitivity score
Cc1ccc(C(=O)Nc2ccc(CN3CCN(C)CC3)c(C(F)(F)F)c2)cc1C#Cc1cnc2cccnn12 [Ponatinib]	4.9
C=CC(=O)N1CCC(Oc2cc3c(Nc4ccc(Cl)c(Cl)c4F)ncnc3cc2OC)CC1 [Poziotinib]	0
CCCCc1nc2cc(/C=C/C(=O)NO)ccc2n1CCN(CC)CC [Pracinostat]	5.1
CC[C@H](C)C(=O)O[C@H]1C[C@H](O)C=C2C=C[C@H](C)[C@H](CC[C@@H](O)C[C@@H](O)CC(=O)O)[C@H]21 [Pravastatin]	0
C[C@]12C=CC(=O)C=C1CC[C@@H]1[C@@H]2[C@@H](O)C[C@@]2(C)[C@H]1CC[C@]2(O)C(=O)CO [Prednisolone]	0
COc1cccc(OCCCN)c1-c1cc(Nc2cnc(C#N)cn2)n[nH]1 [Prexasertib]	16.8
Cn1cc(CNCC2CCN(c3ncc(C(=O)NO)cn3)CC2)c2ccccc21 [Quisinostat]	4.5
CC(C)(C)c1cc(NC(=O)Nc2ccc(-c3cn4c(n3)sc3cc(OCCN5CCOCC5)ccc34)cc2)no1 [Quizartinib]	0
Nc1cc(F)ccc1NC(=O)/C=C/c1cnn(C/C=C/c2ccccc2)c1 [RGFP966]	0
COC(=O)c1ccc([C@H]2c3[nH]c4ccccc4c3C[C@H](C(=O)OC)N2C(=O)CCl)cc1 [RSL3]	0
Cc1cnc(NC(=O)Nc2cc(Br)c(C)cc2OC[C@@H]2CNCCO2)cn1 [Rabusertib]	0.2
Cc1cn(-c2cc(NC(=O)c3ccc(C)c(Nc4nccc(-c5cnccn5)n4)c3)cc(C(F)(F)F)c2)cn1 [Radotinib]	0
CC(C)(C)Cn1c(N)nc2ccc(-c3[nH]c(C(C)(C)C)nc3-c3ccc(F)cc3)nc21 [Ralimetinib]	1.4
O=C(c1ccc(OCCN2CCCCC2)cc1)c1c(-c2ccc(O)cc2)sc2cc(O)ccc12 [Raloxifene]	1.2
Cc1nc(=O)c2cc(CN(C)c3ccc(C(=O)N[C@@H](CCC(=O)O)C(=O)O)s3)ccc2[nH]1 [Raltitrexed]	6

system: OVCAR5; test: as above; conditions: exposure time: 72 h; concentration range: 5 concentrations over 10,000-fold range
Summary of the method: as §1

SMILES	drug sensitivity score
Cc1ccc(C(=O)Nc2ccc(CN3CCN(C)CC3)c(C(F)(F)F)c2)cc1C#Cc1cnc2cccnn12 [Ponatinib]	5.5
C=CC(=O)N1CCC(Oc2cc3c(Nc4ccc(Cl)c(Cl)c4F)ncnc3cc2OC)CC1 [Poziotinib]	3.3
CCCCc1nc2cc(/C=C/C(=O)NO)ccc2n1CCN(CC)CC [Pracinostat]	20.9
CC[C@H](C)C(=O)O[C@H]1C[C@H](O)C=C2C=C[C@H](C)[C@H](CC[C@@H](O)C[C@@H](O)CC(=O)O)[C@H]21 [Pravastatin]	0
C[C@]12C=CC(=O)C=C1CC[C@@H]1[C@@H]2[C@@H](O)C[C@@]2(C)[C@H]1CC[C@]2(O)C(=O)CO [Prednisolone]	0
COc1cccc(OCCCN)c1-c1cc(Nc2cnc(C#N)cn2)n[nH]1 [Prexasertib]	25
Cn1cc(CNCC2CCN(c3ncc(C(=O)NO)cn3)CC2)c2ccccc21 [Quisinostat]	19.2
CC(C)(C)c1cc(NC(=O)Nc2ccc(-c3cn4c(n3)sc3cc(OCCN5CCOCC5)ccc34)cc2)no1 [Quizartinib]	0.8
Nc1cc(F)ccc1NC(=O)/C=C/c1cnn(C/C=C/c2ccccc2)c1 [RGFP966]	3.3
COC(=O)c1ccc([C@H]2c3[nH]c4ccccc4c3C[C@H](C(=O)OC)N2C(=O)CCl)cc1 [RSL3]	3.1
Cc1cnc(NC(=O)Nc2cc(Br)c(C)cc2OC[C@@H]2CNCCO2)cn1 [Rabusertib]	0.1
Cc1cn(-c2cc(NC(=O)c3ccc(C)c(Nc4nccc(-c5cnccn5)n4)c3)cc(C(F)(F)F)c2)cn1 [Radotinib]	0
CC(C)(C)Cn1c(N)nc2ccc(-c3[nH]c(C(C)(C)C)nc3-c3ccc(F)cc3)nc21 [Ralimetinib]	4.3
O=C(c1ccc(OCCN2CCCCC2)cc1)c1c(-c2ccc(O)cc2)sc2cc(O)ccc12 [Raloxifene]	2
Cc1nc(=O)c2cc(CN(C)c3ccc(C(=O)N[C@@H](CCC(=O)O)C(=O)O)s3)ccc2[nH]1 [Raltitrexed]	6.3

system: HOSE1C; test: as above; conditions: exposure time: 72 h; concentration range: 5 concentrations over 10,000-fold range
Summary of the method: as §1

SMILES	drug sensitivity score
Cc1ccc(C(=O)Nc2ccc(CN3CCN(C)CC3)c(C(F)(F)F)c2)cc1C#Cc1cnc2cccnn12 [Ponatinib]	3.3
C=CC(=O)N1CCC(Oc2cc3c(Nc4ccc(Cl)c(Cl)c4F)ncnc3cc2OC)CC1 [Poziotinib]	0.4
CCCCc1nc2cc(/C=C/C(=O)NO)ccc2n1CCN(CC)CC [Pracinostat]	22.2
CC[C@H](C)C(=O)O[C@H]1C[C@H](O)C=C2C=C[C@H](C)[C@H](CC[C@@H](O)C[C@@H](O)CC(=O)O)[C@H]21 [Pravastatin]	0
C[C@]12C=CC(=O)C=C1CC[C@@H]1[C@@H]2[C@@H](O)C[C@@]2(C)[C@H]1CC[C@]2(O)C(=O)CO [Prednisolone]	0
COc1cccc(OCCCN)c1-c1cc(Nc2cnc(C#N)cn2)n[nH]1 [Prexasertib]	40.9
Cn1cc(CNCC2CCN(c3ncc(C(=O)NO)cn3)CC2)c2ccccc21 [Quisinostat]	22.9
CC(C)(C)c1cc(NC(=O)Nc2ccc(-c3cn4c(n3)sc3cc(OCCN5CCOCC5)ccc34)cc2)no1 [Quizartinib]	0
Nc1cc(F)ccc1NC(=O)/C=C/c1cnn(C/C=C/c2ccccc2)c1 [RGFP966]	1.1
COC(=O)c1ccc([C@H]2c3[nH]c4ccccc4c3C[C@H](C(=O)OC)N2C(=O)CCl)cc1 [RSL3]	14.5
Cc1cnc(NC(=O)Nc2cc(Br)c(C)cc2OC[C@@H]2CNCCO2)cn1 [Rabusertib]	1.8
Cc1cn(-c2cc(NC(=O)c3ccc(C)c(Nc4nccc(-c5cnccn5)n4)c3)cc(C(F)(F)F)c2)cn1 [Radotinib]	0
CC(C)(C)Cn1c(N)nc2ccc(-c3[nH]c(C(C)(C)C)nc3-c3ccc(F)cc3)nc21 [Ralimetinib]	1.1
O=C(c1ccc(OCCN2CCCCC2)cc1)c1c(-c2ccc(O)cc2)sc2cc(O)ccc12 [Raloxifene]	0
Cc1nc(=O)c2cc(CN(C)c3ccc(C(=O)N[C@@H](CCC(=O)O)C(=O)O)s3)ccc2[nH]1 [Raltitrexed]	21.8

system: JHOS2; test: as above; conditions: exposure time: 72 h; concentration range: 5 concentrations over 10,000-fold range
Summary of the method: as §1

SMILES	drug sensitivity score
Cc1ccc(C(=O)Nc2ccc(CN3CCN(C)CC3)c(C(F)(F)F)c2)cc1C#Cc1cnc2cccnn12 [Ponatinib]	3.6
C=CC(=O)N1CCC(Oc2cc3c(Nc4ccc(Cl)c(Cl)c4F)ncnc3cc2OC)CC1 [Poziotinib]	0.4
CCCCc1nc2cc(/C=C/C(=O)NO)ccc2n1CCN(CC)CC [Pracinostat]	13
CC[C@H](C)C(=O)O[C@H]1C[C@H](O)C=C2C=C[C@H](C)[C@H](CC[C@@H](O)C[C@@H](O)CC(=O)O)[C@H]21 [Pravastatin]	0
C[C@]12C=CC(=O)C=C1CC[C@@H]1[C@@H]2[C@@H](O)C[C@@]2(C)[C@H]1CC[C@]2(O)C(=O)CO [Prednisolone]	0.1
COc1cccc(OCCCN)c1-c1cc(Nc2cnc(C#N)cn2)n[nH]1 [Prexasertib]	22.4
Cn1cc(CNCC2CCN(c3ncc(C(=O)NO)cn3)CC2)c2ccccc21 [Quisinostat]	8.1
CC(C)(C)c1cc(NC(=O)Nc2ccc(-c3cn4c(n3)sc3cc(OCCN5CCOCC5)ccc34)cc2)no1 [Quizartinib]	0
Nc1cc(F)ccc1NC(=O)/C=C/c1cnn(C/C=C/c2ccccc2)c1 [RGFP966]	0.1
COC(=O)c1ccc([C@H]2c3[nH]c4ccccc4c3C[C@H](C(=O)OC)N2C(=O)CCl)cc1 [RSL3]	0
Cc1cnc(NC(=O)Nc2cc(Br)c(C)cc2OC[C@@H]2CNCCO2)cn1 [Rabusertib]	0
Cc1cn(-c2cc(NC(=O)c3ccc(C)c(Nc4nccc(-c5cnccn5)n4)c3)cc(C(F)(F)F)c2)cn1 [Radotinib]	0
CC(C)(C)Cn1c(N)nc2ccc(-c3[nH]c(C(C)(C)C)nc3-c3ccc(F)cc3)nc21 [Ralimetinib]	1.8
O=C(c1ccc(OCCN2CCCCC2)cc1)c1c(-c2ccc(O)cc2)sc2cc(O)ccc12 [Raloxifene]	1
Cc1nc(=O)c2cc(CN(C)c3ccc(C(=O)N[C@@H](CCC(=O)O)C(=O)O)s3)ccc2[nH]1 [Raltitrexed]	4.2
